{"source": "patent US7883707B2", "about": "“Induction of antigen specific immunnologic tolerance” (priority 2002, dated 2011)", "key": {"[1]": {"tested_on": "antibody titer to rh-alpha-glucosidase (rhGAA)", "assay": "ELISA antibody titer to rhGAA in canines on weekly rhGAA infusions", "type": "in vivo, canine", "experimental": "Enzyme Infusions. […] Infusions were performed with 0.056 mg/kg/week recombinant human alpha glucosidase in a 50 mL infusion of saline and 10 mM NaPO4, pH 5.8. […] Animals were monitored for anaphylactic reaction."}, "fibroblasts": {"tested_on": "fibroblasts", "assay": "Half maximal uptake (Kuptake) of alpha-glucosidase into fibroblasts", "type": "cell-based"}, "[2]": {"details": "control canine ST, no drug treatment"}}, "data": [{"substance": "rhGAA: recombinant human alpha-glucosidase, lysosomal enzyme being developed to treat Pompe disease", "values": [{"measurement": "Antibody levels to rhGAA at the highest point", "setting": "[1]; 0.056 mg/kg/week iv rhGAA, weeks 1-12", "value": "> 150", "unit": "OD Units"}, {"measurement": "titer by week 4", "setting": "[1]; [2]", "value": "more than 100 OD units per microliter of serum"}, {"measurement": "titer subsequently (after week 4)", "setting": "[1]; [2]", "value": "100-200 units per microliter of serum"}, {"measurement": "higher titer of control dog by week 5", "setting": "[1]; control vs treated dog", "value": 100, "unit": "fold"}, {"measurement": "Kuptake (enzyme concentration at half maximal uptake)", "setting": "fibroblasts", "value": "about 1 nanomolar"}]}]}
